Laboratory results as given in paper PMC3728024, “Antidiabetic and Antioxidant Effects and Phytochemicals of Mulberry Fruit (Morus alba L.) Polyphenol Enhanced Extract” (PLoS ONE, 2013).
Converted amounts (≈) assume the structure as drawn. “And” between values parts separate entries of the source, which are not always exact repeats. Equal values may be shown once.

What was measured:
[1] = test system: STZ-induced diabetic mice; assay: Fasting blood glucose of STZ-induced diabetic mice; type: in vivo; conditions: 300 mg/kg p.o. two times a day, n = 8
Experimental: The mice were given 5% glucose solution orally in order to stave off the hypoglycemia during the first day after the injection of STZ [24]. In testing the FBG of the mice, a standard protocol developed by the American National Institute of Health was carried out. […] The FBG was measured using the Accu-Check Active Blood Glucose Meter (Roche Diagnostics, Mannheim, Germany). […] Sample suspended in distilled water containing 0.3% CMC-Na was administered p.o. two times a day for 2 weeks. FBG of the diabetic mice was determined on the day 7 and 14 as described before. On the day 14, the mice were sacrificed under diethyl ether anesthesia after the FBG determination. Blood was collected from the ophthalmic vein and allowed to clot at room temperature for 30 min. The serum was separate by centrifuging at 4000 rpm for 10 min with a refrigerated centrifuge. Liver and kidney were excised. Samples were stored at −20°C until used.

[2] = test system: STZ-induced diabetic mice; assay: Glycosylated serum protein (GSP) of STZ-induced diabetic mice, NBT colorimetric method; type: in vivo; conditions: 300 mg/kg p.o. two times a day, n = 8
Experimental: (§1) Total 32 hyperglycemic mice were divided into four groups according to their FBG (8 mice per group): control (distilled water), MFE 100 (100 mg/kg BW), MFE 200 (200 mg/kg BW), and metformin (300 mg/kg BW). Sample suspended in distilled water containing 0.3% CMC-Na was administered p.o. two times a day for 2 weeks. FBG of the diabetic mice was determined on the day 7 and 14 as described before. On the day 14, the mice were sacrificed under diethyl ether anesthesia after the FBG determination. Blood was collected from the ophthalmic vein and allowed to clot at room temperature for 30 min. The serum was separate by centrifuging at 4000 rpm for 10 min with a refrigerated centrifuge. Liver and kidney were excised. Samples were stored at −20°C until used.
GSP level was measured according to the nitroblue tetrazolium (NBT) colorimetric method using commercial kits purchased from Nanjing Jiancheng Bioengineering Institute (Nanjing, China). This method based on the ability of the ketoamine group of glycated proteins to reduce tetrazolium salt under alkaline conditions. Fructosamine was used as standard.

[3] = test system: STZ-induced diabetic mice; assay: SOD activity in serum, kidney and liver of STZ-induced diabetic mice; type: in vivo; conditions: 300 mg/kg, 2 weeks
Experimental: as §1
(§2) 10% solution of tissue homogenate was prepared as follows. Pieces of liver or kidney were homogenized in 9 volumes (w/v) ice-cold saline and centrifuged at 4000 rpm for 8 min. The supernatants were separated and stored at 4°C for analysis. Protein content of tissue homogenate was determined according to the Bradford method. Bovine serum albumin was used as standard. The superoxide dismutase (SOD), catalase (CAT) and glutathione peroxidase (GSH-Px) activities in liver and kidney tissue, the SOD and CAT activities in serum were determined using the respective commercial kits obtained from Nanjing Jiancheng Bioengineering Institute (Nanjing, China). SOD activity was determined by the nitrite method. SOD activity was expressed as units/mg protein or units/mL serum. The activity of CAT was measured using colorimetric method based on the decomposition of hydrogen peroxide (H2O2) by CAT. The enzyme catalysis was stopped by adding the solution of ammonium molybdate which can react with the rest H2O2 and give a yellow product. The product can be measured at 405 nm by its absorbance. The CAT activities of tissue or serum were presented as units/mg protein or units/mL serum respectively. GSH-Px activity was also measured according to a colorimetric method developed by Sedlak. […]

[4] = test system: STZ-induced diabetic mice; assay: CAT activity in serum, kidney and liver of STZ-induced diabetic mice; type: in vivo; conditions: 300 mg/kg, 2 weeks
Experimental: as §1, §2

[5] = test system: STZ-induced diabetic mice; assay: GSH-Px activity in kidney and liver of STZ-induced diabetic mice; type: in vivo; conditions: 300 mg/kg, 2 weeks
Experimental: as §1, with “Samples were stored at −20°C until used.” left out
10% solution of tissue homogenate was prepared as follows. […] Protein content of tissue homogenate was determined according to the Bradford method. […] The superoxide dismutase (SOD), catalase (CAT) and glutathione peroxidase (GSH-Px) activities in liver and kidney tissue, the SOD and CAT activities in serum were determined using the respective commercial kits obtained from Nanjing Jiancheng Bioengineering Institute (Nanjing, China). SOD activity was determined by the nitrite method. SOD activity was expressed as units/mg protein or units/mL serum. The activity of CAT was measured using colorimetric method based on the decomposition of hydrogen peroxide (H2O2) by CAT. […]

[6] = DPPH radical-scavenging assay of the extracts; conditions: DPPH used was 2,2-Di(4-tert-octylphenyl)-1-picrylhydrazyl, mean ± SD, n = 3
Experimental: (§3) The DPPH radical-scavenging assay was performed according to a previously described method. All tests were performed in triplicate. Ascorbic acid and gallic acid were used as positive controls.

[7] = DPPH radical-scavenging assay of the isolated compounds; conditions: mean ± SD, n = 3
Experimental: as §3

[8] = Superoxide anion radical-scavenging assay (NADH/PMS system); conditions: mean ± SD, n = 3
Description: Superoxide radical were generated by the NADH/PMS system according to a reported protocol. Gallic acid was used as positive control.

Row | SMILES | FBG day 0 ([1]; day 0) | FBG day 7 ([1]; day 7) | FBG day 14 ([1]; day 14) | GSP day 14 [2] | Kidney SOD ([3]; kidney) | Liver SOD ([3]; liver) | Serum SOD ([3]; serum) | Kidney CAT ([4]; kidney) | Liver CAT ([4]; liver) | Serum CAT ([4]; serum) | Kidney GSH-Px ([5]; kidney) | Liver GSH-Px ([5]; liver) | EC50 DPPH [6] | EC50 [7] | EC50 Superoxide anion ([8]; extracts) | EC50 ([8]; isolated compounds)
1 | CN(C)C(=N)N=C(N)N [Metformin] | 25.66 ± 5.95 mmol/L | 15.44±4.57c mmol/L | 17.38±5.31c mmol/L | 6.06±0.47 mmol/L and 6.06±0.47b mmol/L | 246.56±24.80b units/mg protein | 145.03±13.79 units/mg protein | 251.29±28.78b units/mL serum | 21.85±3.90b units/mg protein | 27.07±2.74 units/mg protein | 50.53±17.87c units/mL serum | 240.36±40.31 | 275.78±21.02 |  |  |  | 
2 | O=C(O)c1cc(O)c(O)c(O)c1 [Gallic acid, reference compound] |  |  |  |  |  |  |  |  |  |  |  |  | 4.95 ± 0.24 µg/mL (≈ 29.1 µM) | 5.18 ± 0.34 µM | 5.21 ± 0.27 µg/mL (≈ 30.6 µM) | 10.1 ± 0.39 µM
